Patent US20250290117A1, “MOLECULAR PHENOTYPIC ANTIMICROBIAL SUSCEPTIBILITY TESTING” (priority 2024, published 2025)

Legend:
E. coli = assay: Molecular phenotypic antimicrobial susceptibility test with direct PCR (no extraction DNA purification step); assay type: cell-based, Escherichia coli; conditions: E. coli isolate JJ1887, direct PCR; for Ct at Sensitive Breakpoint: Ct at control (average) 12.832; for Molecular Antimicrobial Susceptibility Result: at sensitive breakpoint
Escherichia coli = assay: Molecular phenotypic antimicrobial susceptibility test (extraction or DNA purification prior to PCR); assay type: cell-based
Procedure, shortened: (§1)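 Semi-quantitative PCR measures growth after exposure, so sensitivity means prevented growth and resistance means allowed growth. Exposure lasts 12-16 hours at single or multiple breakpoint concentrations in Mueller Hinton Broth, with the inoculum at 0.5 McFarland.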

[1] = tested on: pathogens of clinical samples; assay: Molecular phenotypic antimicrobial susceptibility test of clinical samples, direct PCR without a separate DNA purification step (Table 6); assay type: cell-based
Procedure, shortened: as §1

[2] = E. coli isolate 1, Ct at control (average) 21.238
[3] = E. coli isolate 1, at sensitive breakpoint
[4] = E. coli isolate 2, Ct at control (average) 21.270
[5] = E. coli isolate 2, at sensitive breakpoint
[6] = E. coli isolate 3, Ct at control (average) 22.0995
[7] = E. coli isolate 3, at sensitive breakpoint
[8] = E. coli, clinical sample of r10-r24
[9] = E. coli, clinical sample of r10-r24, Ct control avg 12.97
[10] = E. coli, clinical sample of r158-r172
[11] = E. coli, clinical sample of r158-r172, Ct control avg 12.894
[12] = K. aerogenes, clinical sample of r136-r150
[13] = K. aerogenes, clinical sample of r136-r150, Ct control avg 13.854
[14] = K. pneumoniae, clinical sample of r121-r135
[15] = K. pneumoniae, clinical sample of r121-r135, Ct control avg […]
[16] = M. morganii, clinical sample of r55-r69
[17] = M. morganii, clinical sample of r70-r84
[18] = M. morganii, clinical sample of r70-r84, Ct control avg 11.677
[19] = P. mirabilis, clinical sample of r25-r39
[20] = P. mirabilis, clinical sample of r25-r39, Ct control avg 11.801
[21] = P. mirabilis, clinical sample of r40-r54
[22] = P. mirabilis, clinical sample of r40-r54, Ct control avg 10.06

Structure (SMILES)	Ct at Sensitive Breakpoint (E. coli)	Molecular Antimicrobial Susceptibility Result (E. coli)	Ct at Sensitive Breakpoint (Escherichia coli; [2])	Molecular Antimicrobial Susceptibility Result (Escherichia coli; [3])	Ct at Sensitive Breakpoint (Escherichia coli; [4])	Molecular Antimicrobial Susceptibility Result (Escherichia coli; [5])	Ct at Sensitive Breakpoint (Escherichia coli; [6])	Molecular Antimicrobial Susceptibility Result (Escherichia coli; [7])	Molecular Antibiotic Susceptibility Result [1, 8]	Ct [1, 9]	Molecular Antibiotic Susceptibility Result [1, 10]	Ct [1, 11]	Molecular Antibiotic Susceptibility Result [1, 12]	Ct [1, 13]	Molecular Antibiotic Susceptibility Result [1, 14]	Ct [1, 15]	Molecular Antibiotic Susceptibility Result [1, 16]	Molecular Antibiotic Susceptibility Result [1, 17]	Ct [1, 18]	Molecular Antibiotic Susceptibility Result [1, 19]	further results
C[C@H]1COc2c(N3CCN(C)CC3)c(F)cc3c(=O)c(C(=O)O)cn1c23 [Levofloxacin]	12.562	Resistant	20.768	Resistant	19.100	Resistant	29.342	Resistant	Resistant	12.289	Sensitive (Antimicrobial wells with pathogen load detected below the control wells (typically >2 cycle thresholds later) may be reported as Sensitive)	29.603	Sensitive (Antimicrobial wells with pathogen load detected below the control wells (typically >2 cycle thresholds later) may be reported as Sensitive)	33.354	Sensitive (Antimicrobial wells with pathogen load detected below the control wells (typically >2 cycle thresholds later) may be reported as Sensitive)	32.085	Sensitive (Antimicrobial wells with pathogen load detected below the control wells (typically >2 cycle thresholds later) may be reported as Sensitive)	Sensitive (Antimicrobial wells with pathogen load detected below the control wells (typically >2 cycle thresholds later) may be reported as Sensitive)	29.614	Sensitive (Antimicrobial wells with pathogen load detected below the control wells (typically >2 cycle thresholds later) may be reported as Sensitive)	Ct at Sensitive Breakpoint (Escherichia coli; E. coli isolate 4, Ct at control (average) 17.5733): 17.88; Molecular Antimicrobial Susceptibility Result (Escherichia coli; E. coli isolate 4, at sensitive breakpoint): Resistant; Ct at Sensitive Breakpoint (Escherichia coli; E. coli isolate 5, Ct at control (average) 21.0933): 33.85; Molecular Antimicrobial Susceptibility Result (Escherichia coli; E. coli isolate 5, at sensitive breakpoint): Sensitive (Antimicrobial wells with pathogen load detected below the control wells (typically >2 cycle thresholds later) may be reported as Sensitive); Molecular Antibiotic Susceptibility Result ([1]; E. faecalis, clinical sample of r93-r99): Sensitive (Antimicrobial wells with pathogen load detected below the control wells (typically >2 cycle thresholds later) may be reported as Sensitive); Ct ([1]; E. faecalis, clinical sample of r93-r99, Ct control avg 22.011): 33.342; Ct ([1]; E. faecalis, clinical sample of r100-r106, Ct control avg 21.027): 34.507; Ct ([1]; E. faecalis, clinical sample of r107-r113, Ct control avg 20.529): 28.107; Molecular Antibiotic Susceptibility Result ([1]; E. faecalis, clinical sample of r114-r120): Sensitive (Antimicrobial wells with pathogen load detected below the control wells (typically >2 cycle thresholds later) may be reported as Sensitive); Ct ([1]; E. faecalis, clinical sample of r114-r120, Ct control avg 20.909): 30.072; Molecular Antibiotic Susceptibility Result ([1]; E. faecalis, clinical sample of r151-r157): Sensitive (Antimicrobial wells with pathogen load detected below the control wells (typically >2 cycle thresholds later) may be reported as Sensitive); Ct ([1]; E. faecalis, clinical sample of r151-r157, Ct control avg 18.551): 35.719; Ct [1, 20]: 25.775; Molecular Antibiotic Susceptibility Result [1, 21]: Sensitive (Antimicrobial wells with pathogen load detected below the control wells (typically >2 cycle thresholds later) may be reported as Sensitive); Ct [1, 22]: 30.018; Molecular Antibiotic Susceptibility Result ([1]; S. aureus, clinical sample of r85-r92): Resistant; Ct ([1]; S. aureus, clinical sample of r85-r92, Ct control avg 20.309): 16.32
C[C@@H](O)[C@H]1C(=O)N2C(C(=O)O)=C(S[C@@H]3CN[C@H](C(=O)N(C)C)C3)[C@H](C)[C@H]12 [Meropenem]	25.055	Sensitive (Antimicrobial wells with pathogen load detected below the control wells (typically >2 cycle thresholds later) may be reported as Sensitive)	33.626	Sensitive (Antimicrobial wells with pathogen load detected below the control wells (typically >2 cycle thresholds later) may be reported as Sensitive)	29.525	Sensitive (Antimicrobial wells with pathogen load detected below the control wells (typically >2 cycle thresholds later) may be reported as Sensitive)	23.588	Sensitive (Antimicrobial wells with pathogen load detected below the control wells (typically >2 cycle thresholds later) may be reported as Sensitive)	Sensitive (Antimicrobial wells with pathogen load detected below the control wells (typically >2 cycle thresholds later) may be reported as Sensitive)	24.598	Sensitive (Antimicrobial wells with pathogen load detected below the control wells (typically >2 cycle thresholds later) may be reported as Sensitive)	30.093	Sensitive (Antimicrobial wells with pathogen load detected below the control wells (typically >2 cycle thresholds later) may be reported as Sensitive)	28.604	Sensitive (Antimicrobial wells with pathogen load detected below the control wells (typically >2 cycle thresholds later) may be reported as Sensitive)	26.606	Sensitive (Antimicrobial wells with pathogen load detected below the control wells (typically >2 cycle thresholds later) may be reported as Sensitive)	Sensitive (Antimicrobial wells with pathogen load detected below the control wells (typically >2 cycle thresholds later) may be reported as Sensitive)	29.381	Sensitive (Antimicrobial wells with pathogen load detected below the control wells (typically >2 cycle thresholds later) may be reported as Sensitive)	Ct ([1]; M. morganii, clinical sample of r55-r69, Ct control avg 12.09): 30.024; Ct [1, 20]: 32.513; Molecular Antibiotic Susceptibility Result [1, 21]: Sensitive (Antimicrobial wells with pathogen load detected below the control wells (typically >2 cycle thresholds later) may be reported as Sensitive); Ct [1, 22]: 31.805
